Common to all, as to assay type: cell-based
Holding throughout (details): NIH-3T3 cells, ratio of maximal effect to that of standard full agonist brimonidine, NA = not active below 10 micromolar

Assay [1] has as its target T1, alpha2A adrenergic receptors (Homo sapiens, UniProt P08913).
T1 construct: expressed in transfected cells; host or cells: NIH-3T3 cells
T1 sequence (P08913 1-465): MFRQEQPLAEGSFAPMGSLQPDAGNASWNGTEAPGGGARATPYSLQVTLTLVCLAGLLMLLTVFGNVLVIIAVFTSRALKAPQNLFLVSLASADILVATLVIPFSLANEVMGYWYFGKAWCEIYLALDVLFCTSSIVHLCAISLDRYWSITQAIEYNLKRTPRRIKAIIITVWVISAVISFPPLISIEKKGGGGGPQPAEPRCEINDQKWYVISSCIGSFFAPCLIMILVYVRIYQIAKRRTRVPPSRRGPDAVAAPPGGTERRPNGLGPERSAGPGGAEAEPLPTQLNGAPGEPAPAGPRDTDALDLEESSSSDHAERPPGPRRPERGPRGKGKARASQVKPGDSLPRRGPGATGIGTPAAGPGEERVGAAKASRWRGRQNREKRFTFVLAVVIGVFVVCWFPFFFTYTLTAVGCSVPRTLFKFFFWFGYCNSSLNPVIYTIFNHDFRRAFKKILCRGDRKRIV
Briefly: RSAT assay (Receptor Selection and Amplification Technology), alpha2A. The source says: (§1) The imidazole-2-thione compounds of the invention are agonists of alpha2 adrenergic receptors. Many compounds of the invention are specific or selective agonists of alpha2B and/or to a lesser extent alpha2C adrenergic receptors, in preference over alpha2A adrenergic receptors. […] 76, pp. 308-311 (incorporated herein by reference) and is also described below. Another reference pertinent to this assay is Conklin et al. (1993) Nature 363:274-6, Receptor Selection and Amplification Technology (RSAT) assay, also incorporated herein by reference.
(§2) The RSAT assay measures a receptor-mediated loss of contact inhibition that results in selective proliferation of receptor-containing cells in a mixed population of confluent cells. The increase in cell number is assessed with an appropriate transfected marker gene such as β-galactosidase, the activity of which can be easily measured in a 96-well format. Receptors that activate the G protein, Gq, elicit this response. Alpha2 receptors, which normally couple to Gi, activate the RSAT response when coexpressed with a hybrid Gq protein that has a Gi receptor recognition domain, called Gq/i5.
(§3) NIH-3T3 cells are plated at a density of 2×10^6 cells in 15 cm dishes and maintained in Dulbecco's modified Eagle's medium supplemented with 10% calf serum. One day later, cells are cotransfected by calcium phosphate precipitation with mammalian expression plasmids encoding p-SV-β-galactosidase (5-10 μg), receptor (1-2 μg) and G protein (1-2 μg). 40 μg salmon sperm DNA may also be included in the transfection mixture. Fresh media is added on the following day and 1-2 days later, cells are harvested and frozen in 50 assay aliquots. Cells are thawed and 100 μl added to 100 μl aliquots of various concentrations of drugs in triplicate in 96-well dishes. Incubations continue 72-96 hr at 37° C. After washing with phosphate-buffered saline, β-galactosidase enzyme activity is determined by adding 200 μl of the chromogenic substrate (consisting of 3.5 mM o-nitrophenyl-β-D-galactopyranoside and 0.5% nonidet P-40 in phosphate buffered saline), incubating overnight at 30° C. and measuring optical density at 420 nm. The absorbance is a measure of enzyme activity, which depends on cell number and reflects a receptor-mediated cell proliferation. The efficacy or intrinsic activity is calculated as a ratio of the maximal effect of the drug to the maximal effect of a standard full agonist for each receptor subtype. Brimonidine, also called UK14304, the chemical structure of which is shown below, is used as the standard agonist for the alpha2A, alpha2B and alpha2C receptors.
(§4) The results of the RSAT assay with several exemplary compounds of the invention are disclosed in Table 1 above together with the chemical formulas of these examplary compounds. NA stands for “not active” at cohcentrations less than 10 micromolar.

For assay [2], the target named is T2, alpha2B adrenergic receptors (Homo sapiens, UniProt P18089).
T2 construct: expressed in transfected cells; host or cells: NIH-3T3 cells
T2 sequence (P18089 1-450): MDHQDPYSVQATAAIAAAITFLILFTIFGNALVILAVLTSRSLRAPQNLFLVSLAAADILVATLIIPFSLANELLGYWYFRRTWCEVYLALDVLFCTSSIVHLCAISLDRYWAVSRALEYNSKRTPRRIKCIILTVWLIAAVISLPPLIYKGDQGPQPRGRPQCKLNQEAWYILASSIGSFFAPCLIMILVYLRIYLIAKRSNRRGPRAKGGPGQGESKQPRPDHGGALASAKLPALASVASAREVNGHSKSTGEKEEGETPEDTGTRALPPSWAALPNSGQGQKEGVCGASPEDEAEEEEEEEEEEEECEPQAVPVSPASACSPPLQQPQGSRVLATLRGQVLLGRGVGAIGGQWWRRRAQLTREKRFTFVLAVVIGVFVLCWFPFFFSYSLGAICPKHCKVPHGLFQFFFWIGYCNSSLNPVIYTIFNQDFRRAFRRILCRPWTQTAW
Nature of the assay: RSAT assay (Receptor Selection and Amplification Technology), alpha2B.
Description: as §1, §2, §3, §4

Assay [3] has as its target T3, alpha2C adrenergic receptors (Homo sapiens, UniProt P18825).
T3 construct: expressed in transfected cells; host or cells: NIH-3T3 cells
T3 sequence (P18825 1-462): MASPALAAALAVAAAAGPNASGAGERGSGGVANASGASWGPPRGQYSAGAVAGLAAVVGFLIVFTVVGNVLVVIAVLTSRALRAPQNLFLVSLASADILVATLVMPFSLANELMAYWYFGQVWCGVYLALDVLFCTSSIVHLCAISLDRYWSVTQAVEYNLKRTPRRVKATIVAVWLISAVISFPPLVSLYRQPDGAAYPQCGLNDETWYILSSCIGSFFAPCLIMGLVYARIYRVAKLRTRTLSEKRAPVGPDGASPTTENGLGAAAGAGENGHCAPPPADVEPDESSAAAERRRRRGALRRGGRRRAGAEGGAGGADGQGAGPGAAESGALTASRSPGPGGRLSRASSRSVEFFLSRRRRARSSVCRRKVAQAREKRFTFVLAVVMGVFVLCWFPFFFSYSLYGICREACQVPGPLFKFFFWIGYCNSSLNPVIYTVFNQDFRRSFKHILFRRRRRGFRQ
Briefly: RSAT assay (Receptor Selection and Amplification Technology), alpha2C.
Description: as §1, §2, §3, §4

In the case of `Cc1c(C(C)c2c[nH]c(=S)[nH]2)ccc2cccnc12` (stereo not drawn) [Compound-18, 4-[1-(8-methyl-quinolin-7-yl)-ethyl]-1,3-dihydro-imidazole-2-thione], the “Intrinsic Activity Alpha 2A” value in assay [1] is 0.80. The “Intrinsic Activity Alpha 2B” value in assay [2] was 1.05. In addition, the “Intrinsic Activity Alpha 2C” value in assay [3] amounted to 0.41.
For the compound `S=c1[nH]cc(Cc2cccc3nsnc23)[nH]1` [Compound-16, 4-benzo[1,2,5]thiadiazol-4-ylmethyl-1,3-dihydro-imidazole-2-thione], the “Intrinsic Activity Alpha 2B” value in assay [2] worked out at 1.22. Besides, the “Intrinsic Activity Alpha 2C” value in assay [3] came to 0.69.
In the case of `S=c1[nH]cc(Cc2cccc3cccnc23)[nH]1` [Compound 8, 4-quinolin-8-ylmethyl-1,3-dihydro-imidazole-2-thione], in assay [1], the “Intrinsic Activity Alpha 2A” value was 0.93. In assay [2], the “Intrinsic Activity Alpha 2B” value turned out to be 1.01. Also, in assay [3], the “Intrinsic Activity Alpha 2C” value was determined as 0.75.
On the same counts, the results for `CC(c1c[nH]c(=S)[nH]1)c1cccc2cccnc12` (stereo not drawn) [Compound 4, 4-(1-quinolin-8-yl-ethyl)-1,3-dihydro-imidazole-2-thione] are 0.80, 1.03 and 0.62.
As to `S=c1[nH]cc(Cc2ccc3c(c2)CCCS3)[nH]1` [Compound 13, 4-thiochroman-6-ylmethyl-1,3-dihydro-imidazole-2-thione], in assay [2], the “Intrinsic Activity Alpha 2B” value stood at 0.95.
The same measure, in the same setting: the result for `S=c1[nH]cc(Cc2ccc3c(c2)OCO3)[nH]1` [Compound 5, 4-benzo[1,3]dioxol-5-ylmethyl-1,3-dihydro-imidazole-2-thione] reads 1.05.
In the case of `S=c1[nH]cc(Cc2cccc3ccccc23)[nH]1` [Compound 6, 4-naphthalen-1-ylmethyl-1,3-dihydro-imidazole-2-thione], the “Intrinsic Activity Alpha 2A” value in assay [1] is 0.48. Moreover, the “Intrinsic Activity Alpha 2B” value in assay [2] is 0.73. In addition, the “Intrinsic Activity Alpha 2C” value in assay [3] was determined as 0.55.
For the compound `S=c1[nH]cc(Cc2ccc3ccccc3c2)[nH]1` [Compound 11, 4-naphthalen-2-ylmethyl-1,3-dihydro-imidazole-2-thione], in assay [2], the “Intrinsic Activity Alpha 2B” value is on record as 0.94.
Regarding `CC(c1c[nH]c(=S)[nH]1)c1cccc2ccccc12` (stereo not drawn) [Compound 10, 4-(1-naphthalen-1-yl-ethyl)-1,3-dihydro-imidazole-2-thione], the “Intrinsic Activity Alpha 2A” value in assay [1] is listed as 0.52. The “Intrinsic Activity Alpha 2B” value in assay [2] amounted to 1.21.
For the compound `CC(c1c[nH]c(=S)[nH]1)c1cccc2nsnc12` (stereo not drawn) [Compound-17, 4-(1-benzo[1,2,5]thiadiazol-4-yl-ethyl)-1,3-dihydro-imidazole-2-thione], the “Intrinsic Activity Alpha 2B” value in assay [2] is 0.98.
For the compound `CC(c1c[nH]c(=S)[nH]1)c1cccc2c1OCO2` (stereo not drawn) [Compound 3, 4-(1-benzo[1,3]dioxol-4-yl-ethyl)-1,3-dihydro-imidazole-2-thione], in assay [1], the “Intrinsic Activity Alpha 2A” value came to 0.56. For the same compound, the “Intrinsic Activity Alpha 2B” value in assay [2] was 0.97. In addition, the “Intrinsic Activity Alpha 2C” value in assay [3] worked out at 0.77.
Turning to `S=c1[nH]cc(Cc2cccc3ncccc23)[nH]1` [Compound 9, 4-quinolin-5-ylmethyl-1,3-dihydro-imidazole-2-thione], in assay [2], the “Intrinsic Activity Alpha 2B” value was 0.74.
Turning to `CC(c1ccc2c(c1)OCCO2)c1c[nH]c(=S)[nH]1` (stereo not drawn) [Compound 12, 4-[1-(2,3-dihydro-benzo[1,4]dioxin-6-yl)-ethyl]-1,3-dihydro-imidazole-2-thione], the “Intrinsic Activity Alpha 2A” value in assay [1] is recorded as 0.54. In assay [2], the “Intrinsic Activity Alpha 2B” value is 1.15.
For the compound `CC(c1c[nH]c(=S)[nH]1)c1cccc2c1OCCO2` (stereo not drawn) [Compound 2, 4-[1-(2,3-dihydro-benzo[1,4]dioxin-5-yl)-ethyl]-1,3-dihydro-imidazole-2-thione], the “Intrinsic Activity Alpha 2A” value in assay [1] is given as 0.45. Also, the “Intrinsic Activity Alpha 2B” value in assay [2] came out at 1.38. For the same compound, the “Intrinsic Activity Alpha 2C” value in assay [3] is listed as 0.48.
On the same counts, the results for `S=c1[nH]cc(Cc2cccc3c2OCCO3)[nH]1` [Compound 1, 4-(2,3-dihydro-benzo[1,4]dioxin-5-ylmethyl)-1,3-dihydro-imidazole-2-thione] are 0.44, 0.94 and 0.56.
As to `CC(c1c[nH]c(=S)[nH]1)c1cccc2ncccc12` (single isomer, unassigned; (+)) [Compound 14, (+)-4-(1-quinolin-5-yl-ethyl)-1,3-dihydro-imidazole-2-thione], in assay [2], the “Intrinsic Activity Alpha 2B” value was found to be 0.86.
